Assays:
Experiment in all cases: inhibition of NH3-dependent nitrite production by intact cells
Assay type in all cases: cell-based
[1] = biological target: T1, AMO from Nitrosomonas europaea (Nitrosomonas europaea, UniProt Q04507+Q04508+Q82T63)
T1 construct: gene amoA1; native membrane enzyme complex in intact cells (not purified); genome carries duplicate amo operons
T1 sequence (Q04507 2-276): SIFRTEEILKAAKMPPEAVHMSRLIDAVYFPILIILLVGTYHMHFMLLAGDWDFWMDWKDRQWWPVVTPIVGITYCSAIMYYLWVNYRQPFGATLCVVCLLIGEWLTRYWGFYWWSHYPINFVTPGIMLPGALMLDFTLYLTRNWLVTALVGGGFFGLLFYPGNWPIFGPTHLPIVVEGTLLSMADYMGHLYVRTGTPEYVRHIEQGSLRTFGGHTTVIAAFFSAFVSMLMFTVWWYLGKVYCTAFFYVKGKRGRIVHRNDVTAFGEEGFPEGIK
T1 sequence (Q04508 26-420): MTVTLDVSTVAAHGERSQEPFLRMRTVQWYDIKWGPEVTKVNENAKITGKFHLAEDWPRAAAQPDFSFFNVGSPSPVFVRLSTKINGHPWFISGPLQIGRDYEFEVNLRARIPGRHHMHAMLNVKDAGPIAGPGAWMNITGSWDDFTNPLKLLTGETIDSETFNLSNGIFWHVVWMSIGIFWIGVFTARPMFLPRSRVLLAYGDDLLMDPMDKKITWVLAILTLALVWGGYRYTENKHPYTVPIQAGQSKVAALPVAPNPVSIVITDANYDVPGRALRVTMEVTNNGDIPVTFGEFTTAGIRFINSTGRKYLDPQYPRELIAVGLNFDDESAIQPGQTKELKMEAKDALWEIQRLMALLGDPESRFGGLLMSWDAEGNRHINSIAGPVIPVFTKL
T1 sequence (Q82T63 1-271): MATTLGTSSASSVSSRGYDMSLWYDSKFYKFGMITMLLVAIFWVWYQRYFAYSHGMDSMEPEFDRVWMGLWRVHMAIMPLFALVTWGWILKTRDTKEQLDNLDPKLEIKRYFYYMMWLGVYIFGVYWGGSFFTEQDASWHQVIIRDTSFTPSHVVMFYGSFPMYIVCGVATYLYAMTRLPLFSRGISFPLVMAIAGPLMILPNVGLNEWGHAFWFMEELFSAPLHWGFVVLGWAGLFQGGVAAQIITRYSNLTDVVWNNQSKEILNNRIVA

[2] = biological target: T2, AMO from "Ca. Nitrosotalea sinensis" Nd2 (Nitrosotalea sinensis, UniProt A0A2H1EFS5+A0A2H1EG39+A0A2H1EG64)
T2 construct: gene amoA; native membrane enzyme complex in intact cells (not purified)
T2 sequence (A0A2H1EG64 24-239 limits assumed): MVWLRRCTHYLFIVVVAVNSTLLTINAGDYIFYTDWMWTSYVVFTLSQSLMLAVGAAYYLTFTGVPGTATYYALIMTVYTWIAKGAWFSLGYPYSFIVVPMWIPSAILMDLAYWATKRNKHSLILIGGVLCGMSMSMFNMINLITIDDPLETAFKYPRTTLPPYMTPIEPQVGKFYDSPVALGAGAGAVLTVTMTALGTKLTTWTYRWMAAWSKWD
T2 sequence (A0A2H1EFS5 1-188): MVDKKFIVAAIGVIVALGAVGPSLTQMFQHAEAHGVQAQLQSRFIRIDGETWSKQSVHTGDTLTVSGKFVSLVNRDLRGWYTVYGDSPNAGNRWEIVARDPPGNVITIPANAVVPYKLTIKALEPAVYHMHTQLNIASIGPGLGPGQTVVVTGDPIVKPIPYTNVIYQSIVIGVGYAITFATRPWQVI
T2 sequence (A0A2H1EG39 1-187): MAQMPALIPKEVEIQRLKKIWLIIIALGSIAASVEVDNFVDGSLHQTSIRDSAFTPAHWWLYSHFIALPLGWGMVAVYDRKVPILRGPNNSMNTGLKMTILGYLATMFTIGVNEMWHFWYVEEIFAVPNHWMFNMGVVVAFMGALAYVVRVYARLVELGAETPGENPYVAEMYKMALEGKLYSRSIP
Excerpt: inhibition of NH3-dependent nitrite production by intact cells on AMO from "Ca.

[3] = biological target: T3, AMO from "Ca. Nitrosocosmicus franklandus" C13 (Candidatus Nitrosocosmicus franklandianus, UniProt A0A484I8C2+A0A484I9U7+A0A484IBG0)
T3 construct: gene amoA; native membrane enzyme complex in intact cells (not purified); copper-dependent multimeric
T3 sequence (A0A484I9U7 1-216): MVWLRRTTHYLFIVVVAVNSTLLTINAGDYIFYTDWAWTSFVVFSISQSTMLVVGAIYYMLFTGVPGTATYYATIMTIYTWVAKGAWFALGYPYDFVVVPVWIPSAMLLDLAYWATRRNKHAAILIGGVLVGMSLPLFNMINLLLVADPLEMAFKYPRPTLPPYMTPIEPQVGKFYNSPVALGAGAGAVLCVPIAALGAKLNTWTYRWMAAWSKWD
T3 sequence (A0A484I8C2 1-192): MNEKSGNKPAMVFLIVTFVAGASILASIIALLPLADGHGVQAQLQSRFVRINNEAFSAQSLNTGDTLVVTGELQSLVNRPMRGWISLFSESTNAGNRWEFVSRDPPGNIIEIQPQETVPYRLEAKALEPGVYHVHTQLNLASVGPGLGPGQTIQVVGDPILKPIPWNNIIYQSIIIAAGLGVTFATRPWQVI
T3 sequence (A0A484IBG0 1-187): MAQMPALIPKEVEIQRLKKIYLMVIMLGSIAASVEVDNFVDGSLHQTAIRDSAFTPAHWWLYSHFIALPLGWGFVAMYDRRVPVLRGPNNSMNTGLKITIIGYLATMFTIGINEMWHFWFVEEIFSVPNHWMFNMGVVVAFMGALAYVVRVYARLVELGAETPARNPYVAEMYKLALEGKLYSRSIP
Excerpt: inhibition of NH3-dependent nitrite production by intact cells on AMO from "Ca. Nitrosocosmicus franklandus" C13 | partial inhibition of NH3 oxidation by “Ca.

[4] = tested on: T4, pMMO from Methylococcus capsulatus (Bath); settings: 20 mM NH4+, 20 mM formate as reductant, 10 mM PIPES pH 7, 37°C, 30 min preincubation
T4 construct: gene pmoB; sMMO excluded by naphthalene assay

[5] = biological target: T1, AMO from Nitrosomonas europaea; settings: 1 mM NH4+, 50 mM sodium phosphate pH 7.7, 2 mM MgCl2, 30°C, 30 min preincubation

Question: With C#CCCC [C5, 1-pentyne] as the molecule, how does the inhibition at 10 µM [1] read?
Answer: 98 ± 1%

Question: What about the inhibition at 10 µM [2] of the same molecule?
Answer: 70 ± 1%

Question: And the inhibition at 10 µM [3]?
Answer: 14 ± 1%

Question: And the “% inhibition at 10 μM” value [4]?
Answer: > 20%

Question: How did the “% inhibition at 10 μM” value [5] turn out when C#CCCCCCC [C8, 1-octyne] was run?
Answer: AMO activity was completely inhibited by C6 to C8 1-alkynes

Question: Which results are given for C#CCCCCC [C7, 1-heptyne]?
Answer: % inhibition at 10 μM [5]: AMO activity was completely inhibited by C6 to C8 1-alkynes; % inhibition at 10 μM [4]: ~ 10%

Question: What does the source list for C#CCCCC [C6, 1-hexyne]?
Answer: % inhibition at 10 μM [5]: AMO activity was completely inhibited by C6 to C8 1-alkynes; % inhibition at 10 μM [4]: ~ 10%

Question: C#Cc1ccccc1 [PA, phenylacetylene] was tested. Which inhibition at 0.5 µM ([1]; read-out: % inhibition at 0.5 μM) did it give?
Answer: 52.5 ± 1.7%

Question: What about the inhibition at 5 µM ([3]; read-out: % inhibition at 5 μM) of the same molecule?
Answer: 55.4 ± 1.4%
